From paper PMC6225228, “Design, Synthesis and Evaluation of N-pyrazinylbenzamides as Potential Antimycobacterial Agents” (Molecules : A Journal of Synthetic Chemistry and Natural …, 2018)
In brackets after ≈: the same amount, converted by molar mass. Like-named read-outs stand apart in the source and are kept apart here.

Assays:
[1] = system: Mycobacterium tuberculosis H37Rv CNCTC My 331/88 (ATCC 27294); assay: Antimycobacterial microdilution MABA, M. tuberculosis; format: cell-based; conditions: for Mtb H37Rv ATCC 27294 MIC: Middlebrook 7H9 with OADC growth supplement, pH = 6.6, MABA; for MIC: Mycobacterium tuberculosis, read-out: Mtb H37Rv ATCC 27294 MIC, Middlebrook 7H9 with OADC growth supplement, pH = 6.6, MABA
[2] = system: M. kansasii CNCTC My 235/80 (ATCC 12478); assay: Antimycobacterial microdilution MABA, M. kansasii; format: cell-based, Mycobacterium kansasii; conditions: Mycobacterium kansasii, ATCC12478, pH 6.6, read-out: M. kans. ATCC 12478 MIC, Middlebrook 7H9 with OADC, pH 6.6, MABA
[3] = system: M. avium ssp. avium CNCTC My 80/72 (ATCC 15769); assay: Antimycobacterial microdilution MABA, M. avium; format: cell-based, Mycobacterium avium; conditions: Mycobacterium avium, ATCC15769, pH 6.6, read-out: M. avium ATCC 15769 MIC
[4] = system: Mycobacterium smegmatis CCM 4622 (ATCC 607); assay: Antimycobacterial microdilution, M. smegmatis; format: cell-based; conditions: Mycolicibacterium smegmatis, read-out: M. smeg. ATCC 607 MIC
[5] = system: Staphylococcus aureus CCM 4516/08; assay: Antibacterial microdilution broth, SA; format: cell-based
[6] = system: Staphylococcus aureus H 5996/08 methicillin resistant; assay: microbe, parasite or virus in culture; format: cell-based; conditions: for MIC: Staphylococcus aureus, MRSA, read-out: MIC MRSA
[7] = system: Staphylococcus epidermidis H 6966/08; assay: Antibacterial microdilution broth, SE; format: cell-based; conditions: read-out: MIC SE
[8] = system: Enterococcus sp. J 14365/08; assay: Antibacterial microdilution broth, EF; format: cell-based; conditions: Enterococcus, read-out: MIC EF
[9] = system: Escherichia coli CCM 4517; assay: Antibacterial microdilution broth, EC; format: cell-based; conditions: Escherichia coli, read-out: MIC EC
[10] = system: Pseudomonas aeruginosa CCM 1961; assay: Antibacterial microdilution broth, PA; format: cell-based; conditions: Pseudomonas aeruginosa, read-out: MIC PA
[11] = system: Candida albicans ATCC 44859; assay: Antifungal microdilution broth, CA; format: cell-based; conditions: Candida albicans, read-out: MIC CA
[12] = system: Candida tropicalis 156; assay: Antifungal microdilution broth, CT; format: cell-based; conditions: read-out: MIC CT
[13] = system: Candida krusei E28; assay: Antifungal microdilution broth, CK; format: cell-based; conditions: Pichia kudriavzevii, read-out: MIC CK
[14] = system: Candida glabrata 20/I; assay: Antifungal microdilution broth, CG; format: cell-based; conditions: Nakaseomyces glabratus, 20/I, read-out: MIC CG
[15] = system: Trichosporon asahii 1188; assay: Antifungal microdilution broth, TA; format: cell-based; conditions: read-out: MIC TA
[16] = system: Aspergillus fumigatus 231; assay: Antifungal microdilution broth, AF; format: cell-based; conditions: read-out: MIC AF
[17] = system: Lichtheimia corymbifera 272; assay: Antifungal microdilution broth, LC; format: cell-based; conditions: read-out: MIC LC
[18] = system: Trichophyton interdigitale 445; assay: Antifungal microdilution broth, TI; format: cell-based; conditions: read-out: MIC TI
[19] = Staphylococcus aureus, CCM4516, 24 h, read-out: MIC SA, 24 h
[20] = Staphylococcus aureus, CCM4516, 48 h, read-out: MIC SA, 48 h
[21] = Staphylococcus epidermidis, H6966/08, 24 h
[22] = Staphylococcus epidermidis, H6966/08, 48 h
[23] = Trichosporon asahii, 1188, 24 h
[24] = Trichosporon asahii, 1188, 48 h
[25] = Aspergillus fumigatus, 231, 24 h
[26] = Aspergillus fumigatus, 231, 48 h
[27] = Lichtheimia corymbifera, 272, 24 h
[28] = Lichtheimia corymbifera, 272, 48 h
[29] = Trichophyton interdigitale, 445, 72 h
[30] = Trichophyton interdigitale, 445, 120 h

| SMILES | MIC [1] | MIC [2] | MIC [3] | MIC [4] | MIC [5, 19] | MIC [5, 20] | MIC ([6]; 24 h) | MIC ([6]; 48 h) | MIC [7, 21] | MIC [7, 22] | MIC ([8]; SP.J14365/08, 24 h) | MIC ([8]; SP.J14365/08, 48 h) | MIC ([9]; CCM4517, 24 h) | MIC ([9]; CCM4517, 48 h) | MIC ([10]; CCM1961, 72 h) | MIC ([10]; CCM1961, 120 h) | MIC ([11]; ATCC44859, 24 h) | MIC ([11]; ATCC44859, 48 h) | MIC ([12]; Candida tropicalis, 156, 24 h) | MIC ([12]; Candida tropicalis, 156, 48 h) | other results |
| --- | --- | --- | --- | --- | --- | --- | --- | --- | --- | --- | --- | --- | --- | --- | --- | --- | --- | --- | --- | --- | --- |
| COc1cccc(C(=O)Nc2cnccn2)c1 [Compound 1f] | > 100 µg/mL | > 100 µg/mL | > 100 µg/mL | ≥ 500 µg/mL | > 500 µM | > 500 µM | > 500 µM | > 500 µM | > 500 µM | > 500 µM | > 500 µM | > 500 µM | > 500 µM | > 500 µM | > 500 µM | > 500 µM | > 500 µM | > 500 µM | > 500 µM | > 500 µM | Mtb H37Rv ATCC 27294 MIC [1]: >100 µg/mL; MIC ([13]; E28, 24 h): > 500 µM; MIC ([13]; E28, 48 h): > 500 µM; MIC ([14]; 24 h): > 500 µM; MIC ([14]; 48 h): > 500 µM; MIC [15, 23]: > 500 µM; MIC [15, 24]: > 500 µM; MIC [16, 25]: > 500 µM; MIC [16, 26]: > 500 µM; MIC [17, 27]: > 500 µM; MIC [17, 28]: > 500 µM; MIC [18, 29]: > 500 µM; MIC [18, 30]: > 500 µM |
| CCc1ccc(C(=O)Nc2cnccn2)cc1 [Compound 1i] | > 100 µg/mL | > 100 µg/mL | > 100 µg/mL | ≥ 500 µg/mL | > 500 µM | > 500 µM | > 500 µM | > 500 µM | 500 µM (≈ 114 µg/mL) | 500 µM (≈ 114 µg/mL) | 500 µM (≈ 114 µg/mL) | 500 µM (≈ 114 µg/mL) | > 500 µM | > 500 µM | > 500 µM | > 500 µM | > 500 µM | > 500 µM | > 500 µM | > 500 µM | MIC ([13]; E28, 24 h): > 500 µM; MIC ([13]; E28, 48 h): > 500 µM; MIC ([14]; 24 h): > 500 µM; MIC ([14]; 48 h): > 500 µM; MIC [15, 23]: > 500 µM; MIC [15, 24]: > 500 µM; MIC [16, 25]: > 500 µM; MIC [16, 26]: > 500 µM; MIC [17, 27]: > 500 µM; MIC [17, 28]: > 500 µM; MIC [18, 29]: > 500 µM; MIC [18, 30]: > 500 µM |
| O=C(Nc1cnccn1)c1cccc(C(F)(F)F)c1 [Compound 1n] | > 100 µg/mL | > 100 µg/mL | > 100 µg/mL | ≥ 500 µg/mL | > 125 µM | > 125 µM | > 125 µM | > 125 µM | 62.5 µM (≈ 16.7 µg/mL) | 62.5 µM (≈ 16.7 µg/mL) | > 125 µM | > 125 µM | > 125 µM | > 125 µM | > 125 µM | > 125 µM | > 125 µM | > 125 µM | > 125 µM | > 125 µM | Mtb H37Rv ATCC 27294 MIC [1]: >100 µg/mL; MIC ([5]; 24 h, read-out: MIC SA): >125 µM; MIC ([5]; 48 h, read-out: MIC SA): >125 µM; MIC MRSA ([6]; 24 h): >125 µM; MIC MRSA ([6]; 48 h): >125 µM; MIC ([7]; 24 h): 62.50 µM (≈ 16.7 µg/mL); MIC ([7]; 48 h): 62.50 µM (≈ 16.7 µg/mL); MIC ([13]; E28, 24 h): > 125 µM; MIC ([13]; E28, 48 h): > 125 µM; MIC ([14]; 24 h): > 125 µM; MIC ([14]; 48 h): > 125 µM; MIC [15, 23]: > 125 µM; MIC [15, 24]: > 125 µM; MIC [16, 25]: > 125 µM; MIC [16, 26]: > 125 µM; MIC [17, 27]: > 125 µM; MIC [17, 28]: > 125 µM; MIC [18, 29]: > 125 µM; MIC [18, 30]: > 125 µM |
| COc1cccc(C(=O)Nc2cnc(Cl)cn2)c1 [Compound 2f] | > 100 µg/mL | > 100 µg/mL | > 100 µg/mL | ≥ 500 µg/mL | 31.2 µM (≈ 8.24 µg/mL) | 31.2 µM (≈ 8.24 µg/mL) | > 500 µM | > 500 µM | > 500 µM | > 500 µM | > 500 µM | > 500 µM | > 500 µM | > 500 µM | > 500 µM | > 500 µM | 125 µM (≈ 33 µg/mL) | 500 µM (≈ 132 µg/mL) | > 500 µM | > 500 µM | MIC MRSA ([6]; 24 h): >500 µM; MIC MRSA ([6]; 48 h): >500 µM; MIC ([7]; 24 h): >500 µM; MIC ([7]; 48 h): >500 µM; MIC ([13]; E28, 24 h): > 500 µM; MIC ([13]; E28, 48 h): > 500 µM; MIC ([14]; 24 h): > 500 µM; MIC ([14]; 48 h): > 500 µM; MIC [15, 23]: > 500 µM; MIC [15, 24]: > 500 µM; MIC [16, 25]: > 500 µM; MIC [16, 26]: > 500 µM; MIC [17, 27]: > 500 µM; MIC [17, 28]: > 500 µM; MIC [18, 29]: > 500 µM; MIC [18, 30]: > 500 µM |
